Reference: publication PMC9786881 (Viruses, 2022)

Target: RABV NΔ23^0 (nucleoprotein aa 24-450) (Rabies virus, UniProt Q8JXF6)
Format: binding, rabies virus (strain CVS-11)

`CC[C@H](C)[C@H](NC(=O)[C@H](C)NC(=O)[C@H](CO)NC(=O)[C@@H]1CCCN1C(=O)[C@H](CC(N)=O)NC(=O)[C@@H](NC(=O)[C@H](Cc1ccccc1)NC(=O)[C@@H](NC(=O)[C@H](CCCCN)NC(=O)[C@H](CO)NC(=O)[C@H](CCSC)NC(=O)[C@H](CO)NC(=O)[C@H](C)NC(=O)CN)[C@@H](C)CC)C(C)C)C(=O)N[C@@H](CCCNC(=N)N)C(=O)N[C@@H](C)C(=O)NCC(=O)N[C@@H](CC(C)C)C(=O)N[C@@H](C)C(=O)N[C@@H](CC(=O)O)C(=O)N[C@@H](CC(C)C)C(=O)N[C@@H](CCC(=O)O)C(=O)N[C@@H](CCSC)C(=O)N[C@@H](C)C(=O)N[C@@H](CCC(=O)O)C(=O)N[C@@H](CCC(=O)O)C(=O)N[C@H](C(=O)N[C@H](C(=O)N[C@@H](CC(=O)O)C(=O)N[C@@H](CC(C)C)C(=O)N[C@H](C(=O)N[C@@H](CC(N)=O)C(=O)N[C@@H](CCCNC(=N)N)C(=O)N[C@@H](CC(N)=O)C(=O)N[C@H](C(=O)N[C@@H](CCC(=O)O)C(=O)N[C@@H](CC(=O)O)C(=O)N[C@@H](CC(N)=O)C(=O)N[C@@H](CCC(N)=O)C(=O)N[C@@H](C)C(=O)N[C@@H](Cc1c[nH]cn1)C(=O)N[C@@H](CC(C)C)C(=O)N[C@@H](CCC(N)=O)C(=O)N[C@@H](CSC1CC(=O)N(CCNC(=O)c2ccc3c(c2)C(=O)OC32c3ccc(O)cc3Oc3cc(O)ccc32)C1=O)C(=O)N[C@@H](CCC(=O)O)C(=O)O)[C@@H](C)CC)[C@@H](C)CC)C(C)C)[C@@H](C)O` (stereo partly shown) [P42-G41C*] was tested. Which “half time of dissociation” value did it give?
Its value is 256 min.
